Experimental data taken from PMC7281707, “Antiproliferative and Carbonic Anhydrase II Inhibitory Potential of Chemical Constituents from Lycium shawii and Aloe vera: Evidence from In Silico Target Fishing and In Vitro Testing” (Pharmaceuticals, 2020).
Read-outs that look alike come from different tables or passages of the source.

Columns and labels:
[1] = DPPH radical scavenging (antioxidant) assay; settings: for IC50: isolated compounds
Method: Free radical scavenging activity of the test fractions/compounds was determined by measuring the change in absorbance of DPPH (l, l-Diphenyl-2-picrylhydrazyl radical, Sigma-Aldrich, St Louis, MO, USA) at 515 nm by the microplate reader (SpectraMax M2, Molecular Devices, CA, USA) as previously described. […] The IC50 values of the tested compounds were calculated using nonlinear regression through GraphPad Prism 4 software (La Jolla, CA, USA).

[2] = test system: MDA-MB-231 breast cancer cells; assay: MTT cytotoxic activity assay on MDA-MB-231 breast cancer cells; format: cell-based, human; settings: for IC50: MDA-MB-231, MTT, 24 h incubation, read-out: IC50 (Mean ± SEM)
Method: (§1) Cytotoxic activity was performed according to the previously described methods. Breast cancer cell lines MDA-MB-231 were maintained in Dulbecco’s modified eagle medium (DMEM, Invitrogen, Carlsbad, CA, USA). The media was supplemented with 10% fetal bovine serum (FBS) and 1% antimycotic antibiotic (Invitrogen, Carlsbad, CA, USA). Cells were cultured in a 5% CO2-humidified atmosphere at 37 °C. Stock solution (5 mg/mL) of 3-(4,5-dimethylthiazol-2-yl)-2,5-diphenyltetrazolium bromide (MTT, Merck, Darmstadt, Hesse, Germany) was prepared in phosphate-buffered saline (PBS).
(§2) Cells were seeded at a density of 1 × 10^4 cells per well in 96-well microtiter culture plates. After overnight incubation, normal growth medium was removed and replaced with either fresh medium (untreated control) or different concentrations of respective compounds in growth medium diluted from a 2 mM stock. After 24 h of incubation, MTT solution was added to each well (0.1 mg/mL in DMEM) and incubated further for 4 h at 37 °C. Upon termination, the supernatant was aspirated and the MTT formazan, formed by metabolically viable cells, was dissolved in a solubilization solution containing DMSO (100 սL) by mixing for 5 min on a gyratory shaker. The absorbance was measured at 540 nm (reference wavelength 690 nm) on an Ultra Multifunctional Microplate Reader (Bio-Rad, Hercules, California, USA). Absorbance of control (without treatment) was considered as 100% cell survival. Each treatment had three replicate wells [56]. The IC50 values of the active compounds were calculated using nonlinear regression through GraphPad Prism 4 software (La Jolla, CA, USA).

[3] = as above; format: cell-based, human; settings: human, MDA-MB-231 breast cancer cells; for viability at 24 h, 25 µM / viability at 24 h, 75 µM: read-out: cell viability; for viability at 24 h, 75 µM: MDA-MB-231, 75 µM
Method: as §1, §2

bovine erythrocyte CA-II = biological target: T1, bovine erythrocyte CA-II (Bos taurus, UniProt P00921); assay: Carbonic anhydrase II inhibition (4-nitrophenyl acetate); format: biochemical; parameters: % Inhibition: concentration or dose not given beside the values; settings: CA-II in vitro; for IC50: read-out: IC50 (µM) ± (SEM)
T1 construct: purified bovine erythrocyte CA-II; purchased Sigma-Aldrich; host or cells: bovine erythrocytes (natural source)
T1 sequence (P00921 whole entry): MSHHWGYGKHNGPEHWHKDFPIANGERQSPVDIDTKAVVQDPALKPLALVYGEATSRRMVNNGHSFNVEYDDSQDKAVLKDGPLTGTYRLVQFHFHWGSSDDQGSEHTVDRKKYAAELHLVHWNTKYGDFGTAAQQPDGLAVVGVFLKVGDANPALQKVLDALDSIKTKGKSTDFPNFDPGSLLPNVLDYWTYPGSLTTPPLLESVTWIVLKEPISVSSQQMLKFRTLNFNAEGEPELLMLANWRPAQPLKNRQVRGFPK
Method: The total reaction volume of 200 µL included 20 µL of test compounds prepared in DMSO, followed by the addition of 140 µL of the HEPES–tris buffer, 20 µL of purified bovine erythrocyte CA-II (0.1 mg/mL) prepared in buffer, and 20 µL of a solution of 4-nitrophenyl acetate. A 20 µL amount of test compound was incubated with the enzyme (EC 4.2.1.1, Sigma-Aldrich, St. Louis, MO, USA) for 15 min in a 96-well flat-bottom plate. The rate of product formation was monitored with the addition of 20 µL of 4-NPA as substrate, prepared in methanol at the final concentration of 0.7 mM, at 25 °C for 30 min with regular intervals of 1 min, by using microplate readers (Bio-Rad, Molecular Devices, CA, USA). HEPES-tris was used as a buffer for the reaction at the final concentration of 20 mM at pH 7.4. The percent inhibition was calculated by using the following formula:% Inhibition = 100 − (OD test well/OD control) × 100

[4] = reported earlier by the group; cited from earlier work

O=C1O[C@H]([C@@H](O)CO)C(O)=C1O [Ascorbic acid, reference compound]
Antioxidant % Inhibition ([1]; concentration = 1 mg/mL): 90% | Antioxidant IC50 ± SEM ([1]; fractions and standard): 53 ± 1.32 µg/mL

C=C1CC[C@H]2C(=C)CC[C@H]3C(=C)C(=O)O[C@@H]3[C@@H]12 [Compound 1, dehydrocostus lactone]
antioxidant activity (in words) [1]: moderate activity | IC50 ([2]; Homo sapiens, MDA-MB-231, 24 h): 35.4 ± 2.56 µM | inhibition at 100 µM ([2]; Homo sapiens, MDA-MB-231, 100 µM, read-out: inhibition of cell proliferation): 92.1% | viability at 24 h, 25 µM ([3]; MDA-MB-231, 25 µM): 76% | % Inhibition (bovine erythrocyte CA-II): 33% | IC50 (µM) ± (SEM) (bovine erythrocyte CA-II): inactive

C=C1C(=O)O[C@@H]2/C=C(\C)CC/C=C(\C)CC[C@@H]12 [Compound 2, costunolide]
IC50 ([2]; Homo sapiens, MDA-MB-231, 24 h): 42.1 ± 2.98 µM | viability at 24 h, 25 µM ([3]; MDA-MB-231, 25 µM): 81 to 89% | % Inhibition (bovine erythrocyte CA-II): 84.7% | IC50 (bovine erythrocyte CA-II): 24.4 µM

C=C1C(=O)OC2C1CCC(O)C1(C)CCC(C)(O)C21 (stereo not shown) [Compound 3, lyciumate]
IC50 ([2]; Homo sapiens, MDA-MB-231, 24 h): 49.4 ± 3.73 µM | viability at 24 h, 25 µM ([3]; MDA-MB-231, 25 µM): 81 to 89%

Oc1cc(O)c2c(c1)O[C@H](c1ccc(O)c(O)c1)[C@@H](O)C2 [Compound 4, catechin]
% Inhibition (1 mM) [1]: 78% | IC50 [1]: 55 ± 2 µM | IC50 ([2]; Homo sapiens, MDA-MB-231, 24 h): 101 ± 7.09 µM

O=C1c2cccc(O)c2C(=O)c2c(O)cc(CO)cc21 [Compound 5, aloe emodin]
IC50 ([2]; Homo sapiens, MDA-MB-231, 24 h): ~31 µM | loss of cell viability ([2]; MDA-MB-231, 25 µM): 50.53% | IC50 [2]: 31.4 ± 2.44 µM | % Inhibition (bovine erythrocyte CA-II): 86.3% | IC50 (bovine erythrocyte CA-II): 14.4 ± 1.14 µM

Cc1cc(O)c2c(c1)C(=O)c1cc(O)cc(O)c1C2=O [Compound 6, emodin]
% Inhibition (1 mM) [1]: 71% | IC50 [1]: 645 ± 1.5 µM | IC50 ([2]; Homo sapiens, MDA-MB-231, 24 h): 73 µM | IC50 [2]: 73.5 ± 5.89 µM

CC1OC(OCc2cc(O)c3c(c2)C(=O)c2cccc(O)c2C3=O)C(O)C(O)C1O (stereo not shown) [Compound 8, aloe emodine 11-O-rhamnoside]
IC50 ([2]; Homo sapiens, MDA-MB-231, 24 h): 72 µM | IC50 [2]: 72.2 ± 6.29 µM | viability at 24 h, 25 µM ([3]; MDA-MB-231, 25 µM): 81 to 89%

O=C(/C=C/c1ccccc1)O[C@@H]1O[C@H](CO)[C@@H](O)[C@H](O)[C@H]1OC(=O)c1cc(O)c(O)c(O)c1 [Compound 9, lyciumaside]
antioxidant IC50 [4]: 30 µg/mL | IC50 ([2]; Homo sapiens, MDA-MB-231, 24 h): 76 µM | cytotoxic effect / cell growth inhibition ([2]; MDA-MB-231, 25 µM): did not inhibit cell growth significantly | loss of cell viability ([2]; MDA-MB-231, 100 µM): approximately 70% | IC50 [2]: 76.9 ± 7.04 µM | cell growth inhibition ([2]; MDA-MB-231, concentrations above 50 µM): above 50% | viability at 24 h, 25 µM ([3]; MDA-MB-231, 25 µM): 81 to 89%

O=C1c2c(O)cccc2[C@](O)([C@@H]2O[C@H](CO)[C@@H](O)[C@H](O)[C@H]2O)c2cc(CO)cc(O)c21 [Compound 10, 10-hydroxy aloin A]
IC50 ([2]; Homo sapiens, MDA-MB-231, 24 h): 143 ± 12.7 µM | cytotoxic effect / cell growth inhibition ([2]; MDA-MB-231, 25 µM): growth-promoting effect | viability at 24 h, 75 µM [3]: 77%

C[C@@H]1O[C@@H](OCc2cc(O)c3c(c2)[C@H]([C@@H]2O[C@H](CO)[C@@H](O)[C@H](O)[C@H]2O)c2cccc(O)c2C3=O)[C@H](O)[C@H](O)[C@H]1O [Compound 11, aloinoside B]
IC50 ([2]; Homo sapiens, MDA-MB-231, 24 h): 140 ± 13.1 µM | cytotoxic effect / cell growth inhibition ([2]; MDA-MB-231, 25 µM): no cell growth inhibition | viability at 24 h, 75 µM [3]: 64%

COc1cc(=O)oc2cc(O)cc(C)c12 [Compound 12, 7-demethylsiderin]
IC50 ([2]; Homo sapiens, MDA-MB-231, 24 h): 60.1 ± 4.82 µM | inhibition at 24 h, 25 µM ([3]; MDA-MB-231, 25 µM, read-out: cytotoxic effect / cell growth inhibition): ~14% | viability at 24 h, 75 µM [3]: 44% | % Inhibition (bovine erythrocyte CA-II): 91.2% | IC50 (bovine erythrocyte CA-II): 23.3 ± 1.63 µM

CC(=O)Cc1cc(=O)c2c(C)cc(O)c(C3OC(COC(=O)C=Cc4ccc(O)cc4)C(O)C(O)C3O)c2o1 (stereo not shown) [Compound 13, 6′-O-coumaroylaloesin]
% Inhibition (1 mM) [1]: 73% | IC50 [1]: 762 ± 2 µM

C[C@@H]1C[C@@H](O)Cc2cc(O)cc(O)c21 [Compound 14, feroxidin]
% Inhibition (1 mM) [1]: 80% | IC50 [1]: 241 ± 1.5 µM

COc1cccc2c1C(=O)c1c(O)c3c(c(O)c1C2=O)C[C@@](O)(C(=O)CO)C[C@@H]3O[C@H]1C[C@H](N)[C@H](O)[C@H](C)O1 [Doxorubicin, reference compound]
IC50 ([2]; Homo sapiens, MDA-MB-231, 24 h): 3.31 ± 0.19 µM
